# Data taken from patent publication US20250154193A1, “STEROID COMPOUND, AND PREPARATION METHOD THEREFOR AND APPLICATION THEREOF” (CHOLESGEN (SHANGHAI) CO., LTD., priority 2022, published 2025).
# Tests used:
# [1] = tested on: Ldlr−/− mice; experiment: Sudan IV staining of atherosclerotic plaques of the aortic tree; assay type: in vivo; settings: AMLN diet, intragastrically once a day, 8 weeks, vs control group
# Source text: After the administration experiment in mice, the aorta was isolated and fixed in 4% PFA. Perivascular adipose tissues were removed with ophthalmic forceps under a stereo microscope, stained with Sudan IV, and atherosclerotic plaques were washed in 70% ethanol. After staining, the aortic tree was imaged using a ZEISS Axio Zoom.V16 stereo microscope. Atherosclerotic lesions were quantified using ImageJ software.
# AMLN-fed Ldlr^−/− mice also served as a common model for atherosclerosis, allowing simultaneous study of both fatty liver and atherosclerosis. Male Ldlr^−/− mice at 8 weeks of age were fed with AMLN diet and intragastrically administered once a day for a total of 8 weeks. After the mice were euthanized, the aorta was isolated and fixed in 4% paraformaldehyde. Perivascular adipose tissues were removed under a stereo microscope, stained with Sudan IV, and rinsed with 70% ethanol. The aortic tree was imaged using a stereo microscope (Axio Zoom.V16, ZEISS, Germany). Atherosclerotic plaques were quantified using ImageJ software.
# [2] = tested on: Ldlr−/− mice; experiment: AMLN diet-induced fatty liver model: body weight, serum and liver metabolic parameters; assay type: in vivo; settings: 30 mg/kg/day intragastrically, 8 weeks
# Source text: Animals: Adult male C57BL/6J mice were purchased from Shanghai SLAC, and low-density lipoprotein receptor knockout mice (Ldlr^−/− mice, T001464) were purchased from Jiangsu GemPharmatech Co., Ltd. Mice were housed in an environment free of pathogens, maintained in a 12-hour light/dark cycle, and had free access to water and feed. The vehicle for oral gavage was 0.5% Tween-80, 0.5% methylcellulose, and 0.9% sodium chloride. AMLN feed (AMLN, Dyets) contains 40% (kcal %) fat (80% of which is trans fat), 22% (mass %) fructose, and 2% (mass %) cholesterol.
# After drug treatment, mice were fasted for 4 hours before being euthanized, and blood and liver samples were collected. Blood was coagulated and centrifuged at 1,500 g for 10 minutes at 4° C. to obtain the supernatant (i.e., serum). Lipids from liver were extracted using the chloroform/methanol method. The samples were first homogenized and crushed using a Precelly 24 homogenizer, and centrifuged at 16,000 g for 10 minutes at 4° C. The organic phase was transferred to a new tube, dried with nitrogen, and dissolved in ethanol. Total cholesterol and triglyceride levels in blood and liver were measured by cholesterol and triglyceride kits (Shanghai Kehua Bio-Engineering Co., Ltd.), respectively. ALT (LE-M0477, Lai Er Bio-Tech) and AST (LE-M0568, Lai Er Bio-Tech) levels in serum were measured according to the corresponding manufacturer's manuals, using an analytical system from Sysmex Shanghai Ltd.
# Male C57BL/6J mice and male Ldlr^−/− mice (TOO1464, Jiangsu GemPharmatech Co., Ltd.) at 8 weeks of age were purchased, grouped, fed with different diets, and treated with different drugs. The mice were randomly divided into 4 groups with 8 to 9 mice in each group: One group consisted of C57BL/6J wild-type mice, which was the chow diet (CD) vehicle control group. The other three groups consisted of Ldlr^−/− knockout mice, including chow diet (CD) vehicle control group, AMLN diet (containing […], 22% fructose, and 2% cholesterol) vehicle control group, and AMLN diet combined with 25-hydroxylanosterol administration group (25-hydroxylano sterol was administered at a concentration of 30 mg/kg/day). The mice in four groups were intragastrically administered once a day, during which the changes in food intake and body weight of the mice in different treatment groups were counted. After 8 weeks, blood and liver samples were collected from the mice to analyze blood lipids, liver lipids, and liver damage phenotypes.
# In FIGS. 1 and 2, P values were calculated using the statistical analysis of two-way ANOVA (Dunnett's multiple comparisons test); * indicates P<0.05; ns indicates no statistical difference. In FIGS. 3 to 8, data are represented as mean±standard deviation. P values were calculated using one-way ANOVA; * indicates P<0.05; ** indicates P<0.01; *** indicates P<0.001.
# [3] = Liver microsomal metabolic stability assay; assay type: in vitro ADME; settings: rat liver microsomes, NADPH, 37° C., 0-60 minutes; read-out: Rat microsomal metabolic half-life (t1/2)
# Description: PBS solution (100 mM), MgCl2 solution (100 mM), and NADPH solution (20 mM) were prepared respectively. Compound and testosterone (positive control) stock solutions were then prepared with dimethyl sulfoxide (DMSO), diluted to 100 µM with methanol for sample incubation, and stored at −10 to −30° C. 12.5 μL of rat liver microsomes (purchased from XenoTech, Cat. No.: R1000, Lot No.: 1310030, specification: 20 mg/mL), 432.5 µL of PBS solution (100 mM), 25 µL of NADPH solution (20 mM), and 25 μL of MgCl2 solution (100 mM) were added to a 96-well plate, mixed well, and pre-incubated at 37° C. for 5 minutes. 5 µL of substrate (test compound) solution was added to start the reaction. At specified time points of 0, 5, 15, 30, 45, and 60 minutes (0 and 60 minutes for the negative control group), 50 µL of the incubated samples were added to a stop plate containing 100 µL of ice-cold stop solution, vortexed for 1 minute to inactivate the reaction, and stored at −60 to −90° C. for subsequent analysis. Sample analysis of the test compound and the control compound testosterone was performed using LC-MS/MS method. Chromatographic peaks were integrated, calculated, and processed using Analyst software. Semi-quantitative analysis was performed for both the test compound and the control compound testosterone by calculating peak area ratios.
smiles,measurement,setting,value
"C[C@H](CCCC(C)(C)O)[C@H]1CC[C@@]2(C)C3=C(CC[C@]12C)[C@@]1(C)CC[C@H](O)C(C)(C)[C@@H]1CC3 [compound 68, (1R,3aR,5aR,7S,9aS,11aR)-1-[(2R)-6-hydroxy-6-methylheptan-2-yl]-3a,6,6,9a,11a-pentamethyl-2,3,3a,4,5,5a,6,7,8,9,9a,10,11,11a-tetradecahydro-1H-cyclopenta[1,2-a]phenanthren-7-ol]",formation and quantity of atherosclerotic plaques (Sudan IV staining of aortic tree),[1],significantly reduced
same,alanine aminotransferase (ALT) in serum,[2],significantly reduced
same,aspartate aminotransferase (AST) in serum,[2],significantly reduced
same,total liver cholesterol levels,[2],significantly reduced
same,total liver triglyceride levels,[2],significantly reduced
same,AMLN diet-induced weight gain,[2]; vs AMLN diet vehicle control,significantly lower
same,total cholesterol levels in serum,[2]; vs control group,significantly reduced
same,total triglyceride levels in serum,[2]; vs control group,significantly reduced
same,half-life at 1 µM,[3],8.36 min
